Test results reported in patent US8735414B2 (priority 2009, dated 2014).

What was measured:
[1] = test system: bicistronic HCV replicon (replicon RNA, GenBank Accession No. AJ242654); experiment: HCV Replicon Assay; assay type: cell-based; details: Hepatitis C virus, 72 h, read-out: Replicon IC50

With `CC(C)NS(=O)(=O)c1cnc(-c2c(C#N)c3ccc(F)cc3n2C2CCCC2)nc1` [compound 141, 2-(3-cyano-1-cyclopentyl-6-fluoro-1H-indol-2-yl)-N-(propan-2-yl)pyrimidine-5-sulfonamide] the IC50 [1] was 500 to 2000 nM and the melting point was 216 to 217 °C.
Molecule `CCc1cc2c(cc1F)c(C(N)=O)c(-c1ccc(S(=O)(=O)N[C@@H](C)C(F)(F)F)cn1)n2-c1cccnn1` [compound 1046, 6-ethyl-5-fluoro-1-(pyridazin-3-yl)-2-(5-{[(2S)-1,1,1-trifluoropropan-2-yl]sulfamoyl}pyridin-2-yl)-1H-indole-3-carboxamide] has an IC50 [1] of 2000 to 5000 nM and a melting point of 206 to 212 °C.
For `Cc1cc2c(cc1F)c(C(N)=O)c(-c1ccc(S(=O)(=O)N[C@@H](C)C(F)(F)F)cn1)n2C1CCCC1` [compound 700, 1-cyclopentyl-5-fluoro-6-methyl-2-(5-{[(2S)-1,1,1-trifluoropropan-2-yl]sulfamoyl}pyridin-2-yl)-1H-indole-3-carboxamide], the IC50 [1] was under 500 nM and the melting point was 244 to 246 °C.
`Cc1ccnc(-n2c(-c3ccc(S(=O)(=O)N[C@@H](C)C(F)(F)F)cn3)c(C#N)c3cc(F)c(C)cc32)c1` [compound 886, 6-[3-cyano-5-fluoro-6-methyl-1-(4-methylpyridin-2-yl)-1H-indol-2-yl]-N-[(2S)-1,1,1-trifluoropropan-2-yl]pyridine-3-sulfonamide] showed an IC50 [1] of under 500 nM and a melting point of 200 to 204 °C.
`Cc1cc(F)c2c(C#N)c(-c3ccc(S(=O)(=O)NC4(C(F)(F)F)CC4)cn3)n(C3CCCC3)c2c1` [compound 628, 6-(3-cyano-1-cyclopentyl-4-fluoro-6-methyl-1H-indol-2-yl)-N-[1-(trifluoromethyl)cyclopropyl]pyridine-3-sulfonamide] showed an IC50 [1] of under 500 nM and a melting point of 242 to 246 °C.
`Cc1ccc2c(C#N)c(-c3ccc(S(=O)(=O)NC(C)(C)C(F)(F)F)cn3)n(-c3ccccn3)c2c1` [compound 686, 6-[3-cyano-6-methyl-1-(pyridin-2-yl)-1H-indol-2-yl]-N-(1,1,1-trifluoro-2-methylpropan-2-yl)pyridine-3-sulfonamide] showed an IC50 [1] of under 500 nM and a melting point of 208 to 209 °C.
`Cc1cc2c(cc1F)c(C#N)c(-c1ccc(S(=O)(=O)N[C@@H](C)C(F)(F)F)cn1)n2-c1ccsc1Cl` [compound 1057, 6-[1-(2-chlorothiophen-3-yl)-3-cyano-5-fluoro-6-methyl-1H-indol-2-yl]-N-[(2S)-1,1,1-trifluoropropan-2-yl]pyridine-3-sulfonamide] gave an IC50 [1] of under 500 nM and a melting point of 226.7 to 231.8 °C.
`CCc1cc2c(cc1F)c(C#N)c(-c1ccc(S(=O)(=O)N[C@@H](C)C(F)(F)F)cn1)n2-c1cccc(OC)c1` [compound 1010, 6-[3-cyano-6-ethyl-5-fluoro-1-(3-methoxyphenyl)-1H-indol-2-yl]-N-[(2S)-1,1,1-trifluoropropan-2-yl]pyridine-3-sulfonamide] showed an IC50 [1] of under 500 nM and a melting point of 229 to 233 °C.
`N#Cc1c(-c2ccc(S(=O)(=O)NC(CF)CF)cn2)n(-c2ncccn2)c2cc(OC(F)F)ccc12` [compound 635, 6-[3-cyano-6-(difluoromethoxy)-1-(pyrimidin-2-yl)-1H-indol-2-yl]-N-(1,3-difluoropropan-2-yl)pyridine-3-sulfonamide] gave an IC50 [1] of under 500 nM and a melting point of 173 to 176 °C.
For `CCS(=O)(=O)Nc1ccc(-c2c(C#N)c3ccc(OCC(F)(F)F)cc3n2CC2CC2)nc1` [compound 284, N-{6-[3-cyano-1-(cyclopropylmethyl)-6-(2,2,2-trifluoroethoxy)-1H-indol-2-yl]pyridin-3-yl}ethanesulfonamide], the IC50 [1] was 500 to 2000 nM and the melting point was 190 to 195 °C.
`Cc1c(F)cc2c(C#N)c(-c3ccc(S(=O)(=O)NC4(C(F)(F)F)CC4)cn3)n(C3CCCC3)c2c1F` [compound 654, 6-(3-cyano-1-cyclopentyl-5,7-difluoro-6-methyl-1H-indol-2-yl)-N-[1-(trifluoromethyl)cyclopropyl]pyridine-3-sulfonamide] gave an IC50 [1] of under 500 nM and a melting point of 241 to 246 °C.
Molecule `CCc1cc2c(cc1F)c(C#N)c(-c1ccc(S(=O)(=O)N[C@@H](C)C(F)(F)F)c(C)n1)n2-c1ncccn1` [compound 881, 6-[3-cyano-6-ethyl-5-fluoro-1-(pyrimidin-2-yl)-1H-indol-2-yl]-2-methyl-N-[(2S)-1,1,1-trifluoropropan-2-yl]pyridine-3-sulfonamide] has an IC50 [1] of under 500 nM and a melting point of 258 to 262 °C.
In the case of `C[C@H](NS(=O)(=O)c1ccc(-c2c(C#N)c3ccc(Cl)cc3n2-c2ccccn2)nc1)C(F)(F)F` [compound 437, 6-[6-chloro-3-cyano-1-(pyridin-2-yl)-1H-indol-2-yl]-N-[(2S)-1,1,1-trifluoropropan-2-yl]pyridine-3-sulfonamide], the IC50 [1] is reported as under 500 nM and the melting point is reported as 177 to 178 °C.
Work on `Cc1cnc(-n2c(-c3ccc(S(=O)(=O)N[C@@H](C)C(F)(F)F)cn3)c(C#N)c3cc(F)c(C)cc32)nc1` [compound 925, 6-[3-cyano-5-fluoro-6-methyl-1-(5-methylpyrimidin-2-yl)-1H-indol-2-yl]-N-[(2S)-1,1,1-trifluoropropan-2-yl]pyridine-3-sulfonamide] yielded an IC50 [1] of under 500 nM and a melting point of 179 to 184 °C.
Work on `CC(C)(C)NS(=O)(=O)c1ccc(-c2c(C#N)c3cc(OC(F)F)ccc3n2C2CCC2)nc1` [compound 20, N-tert-butyl-6-[3-cyano-1-cyclobutyl-5-(difluoromethoxy)-1H-indol-2-yl]pyridine-3-sulfonamide] yielded an IC50 [1] of 500 to 2000 nM and a melting point of 167 to 170 °C.
For `Cc1ccc2c(C#N)c(-c3ncc(S(=O)(=O)N[C@@H](C)C4CC4)cn3)n(C3CCCC3)c2c1` [compound 204, 2-(3-cyano-1-cyclopentyl-6-methyl-1H-indol-2-yl)-N-[(1S)-1-cyclopropylethyl]pyrimidine-5-sulfonamide], the IC50 [1] was under 500 nM and the melting point was 180 to 182 °C.
For `Cc1cc2c(C#N)c(-c3ccc(S(=O)(=O)NC(CF)CF)cn3)n(C3CCCC3)c2cc1F` [compound 482, 6-(3-cyano-1-cyclopentyl-6-fluoro-5-methyl-1H-indol-2-yl)-N-(1,3-difluoropropan-2-yl)pyridine-3-sulfonamide], the IC50 [1] was under 500 nM and the melting point was 207 to 211 °C.
Work on `Cc1ccc2c(C#N)c(-c3ccc(S(=O)(=O)N[C@@H](C)C(F)(F)F)cn3)n(C3CCCC3)c2c1F` [compound 424, 6-(3-cyano-1-cyclopentyl-7-fluoro-6-methyl-1H-indol-2-yl)-N-[(2S)-1,1,1-trifluoropropan-2-yl]pyridine-3-sulfonamide] yielded an IC50 [1] of under 500 nM and a melting point of 191 to 195 °C.
For `CCc1cc2c(cc1F)c(C(N)=O)c(-c1ccc(S(=O)(=O)N[C@@H](C)C(F)(F)F)cn1)n2-c1ccc(F)cn1` [compound 981, 6-ethyl-5-fluoro-1-(5-fluoropyridin-2-yl)-2-(5-{[(2S)-1,1,1-trifluoropropan-2-yl]sulfamoyl}pyridin-2-yl)-1H-indole-3-carboxamide], the IC50 [1] was under 500 nM and the melting point was 200 to 204 °C.
For `CC(C)S(=O)(=O)Nc1ccc(-c2c(C#N)c3ccc(C4CC4)cc3n2C2CCC2)cn1` [compound 289, N-[5-(3-cyano-1-cyclobutyl-6-cyclopropyl-1H-indol-2-yl)pyridin-2-yl]propane-2-sulfonamide], the IC50 [1] was 500 to 2000 nM and the melting point was 226 to 228 °C.
